One compound from ChEMBL document CHEMBL1143406 (Antimicrob Agents Chemother, 2007) can be followed below.

Common to all, as to type: ADME, organism-based
Data set [1] can be described thus: Tmax in HIV-negative human at 600 mg, po administered every 24 hrs coadministered with 300 mg of atazanavir every 12 hrs. The settings on record: in vivo.
The nature of data set [2]: Cmax in HIV-negative human at 600 mg, po administered every 24 hrs coadministered with 300 mg of atazanavir every 12 hrs. Details: dose 600 mg, route oral. The following applies: in vivo.
In data set [3] the test system is Homo sapiens. The experiment in a line: Terminal apparent distribution volume in HIV-negative human at 600 mg, po administered every 24 hrs coadministered with 300 mg of atazanavir every 12 hrs. The settings on record: in vivo.
Data set [4] can be described thus: AUC (24 hrs) in HIV-negative human at 600 mg, po administered every 24 hrs coadministered with 300 mg of atazanavir every 12 hrs. Details: dose 600 mg, time < 24 hr, route oral. The following applies: plasma.
The subject of data set [5] is Homo sapiens. The experiment in a line: Terminal apparent distribution volume in HIV-negative human at 600 mg, po administered every 24 hrs coadministered with 400 mg of atazanavir every 12 hrs. The following applies: in vivo.
Data set [6] in a line: Half life in HIV-negative human at 600 mg, po administered every 24 hrs coadministered with 300 mg of atazanavir every 12 hrs. The following applies: in vivo.
Data set [7] can be described thus: Apparent oral clearance in HIV-negative human at 600 mg, po administered every 24 hrs coadministered with 400 mg of atazanavir every 12 hrs. The settings on record: in vivo.
Data set [8] can be described thus: Cmax in HIV-negative human at 600 mg, po administered every 24 hrs coadministered with 400 mg of atazanavir every 12 hrs. Further details: dose 600 mg, route oral. The settings on record: in vivo.
Data set [9] can be described thus: AUC (24 hrs) in HIV-negative human at 600 mg, po administered every 24 hrs coadministered with 400 mg of atazanavir every 12 hrs. Details: time < 24 hr, dose 600 mg, route oral. The settings on record: plasma.
Data set [10] can be described thus: Tmax in HIV-negative human at 600 mg, po administered every 24 hrs coadministered with 400 mg of atazanavir every 12 hrs. The following applies: in vivo.
Data set [11] is described as follows: Apparent oral clearance in HIV-negative human at 600 mg, po administered every 24 hrs coadministered with 300 mg of atazanavir every 12 hrs. The following applies: in vivo.
The nature of data set [12]: Half life in HIV-negative human at 600 mg, po administered every 24 hrs coadministered with 400 mg of atazanavir every 12 hrs. The settings on record: in vivo.

`CO[C@H]1/C=C/O[C@@]2(C)Oc3c(C)c(O)c4c(O)c(c(/C=N/N5CCN(C)CC5)c(O)c4c3C2=O)NC(=O)/C(C)=C\C=C\[C@H](C)[C@H](O)[C@@H](C)[C@@H](O)[C@@H](C)[C@H](O)[C@@H]1C`: the figures for the time of peak concentration (Tmax) in [1] and in [10] were 3.2 h and 3.7 h, respectively. The Cmax (as a rule, the highest concentration seen after dosing) was 1650 ng/mL in [2] and 1710 ng/mL in data set [8]. Also, the Vbeta was found to be 200 L in data set [3] and 159 L in data set [5]. Further, the AUC (commonly concentration integrated over time) at 24 h in [4] is 8300 ng·h/mL; in [9], 9400 ng·h/mL. Also, the results for the half-life in [6] and in data set [12] were 1.6 h and 1.5 h, respectively. Besides, the CL/F (in general, the apparent clearance, not corrected for the fraction that reaches the circulation) in [7] was 1260 mL/min; in [11], 1490 mL/min.
